Assay results as given in patent US8252843B2, “Compounds for the treatment of AIDS and other viral diseases” (Novaremed Limited, priority 2004, dated 2012).

Tests used:
PBMC cells = experiment: Toxicity against PBMC cells by Alamar Blue reagent; details: 24 h and 48 h incubation
Protocol: Human PBMC cells were obtained from a blood bank and plated out on a standard 96-well plate at a concentration of 10^5 cells/well. PHA (10 μg/ml) and AV 61S (or AV 74S) at different dilutions in DMSO of 100 μg/ml, 50 μg/ml, 25 μg/ml, 10 μg/ml and 1 μg/ml were added simultaneously to each well. The cells were incubated for 24 hours.
After 24 hours, Alamar Blue reagent was added up to 10% of the total well volume.
The controls were medium only and CsA (1 mg/1 ml EtOH).
The contents of each well were then assayed 1 hour, 3 hours and 6 hours after addition of Alamar Blue by fluorescence in the manner known to those skilled in the art to determine the viability of the PBMCs.

PHA-activated PBMCs [1] = experiment: Example 10: [3H]-thymidine proliferation of PHA-activated PBMCs, compound diluted in DMSO; format: cell-based, human; details: for inhibition relative to the controls: DMSO 0.25%; for inhibitory effect on PBMCs (summary of Examples 9 and 10): 100 and 50 μg/ml (61S), 100, 50 and 25 (74S)
Protocol: (§1) Human PBMCs were prepared from a blood bank and plated out at a concentration of 10^5 cells per well in a standard 96-well plate. PHA was added to each well at a concentration of 10 μg/ml together with AV 61S or PPG-7 (both in PBS) at concentrations of 50 μg/ml, 1 μg/ml, 100 ng/ml, 1 ng/ml and 100 pg/ml respectively for AV 61S and 50 μg/ml, 1 μg/ml and 10 ng/ml for PPG-7. The cells were then incubated for 7 days. [3H]-thymidine (NET-027 Thymidine [methyl-3H] from NEN 6.7 Ci/mmol Batch 3106446) was added to each well 48 hours after plating at a concentration of 1 mCi/well; a second dose was added to each well 18 hours before the end of the experiment. The cells were then harvested and counted for 1 min./sample.
Example 9 was repeated using separately compounds AV 61S, AV 61R and AV 74S and AV 74R. In each case the test compound was diluted in DMSO to a final concentration of 0.25%. A single dose of [3H]-thymidine (NET-027 Thymidine [methyl-3H] from NEN 6.7 Ci/mmol Batch 3106446) was added to each well 18 hours before the end of the experiment.

PHA-activated PBMCs [2] = experiment: Example 9: [3H]-thymidine proliferation of PHA-activated PBMCs, compound in PBS; format: cell-based, human; details: 50 μg/ml, 7 days, PHA 10 μg/ml
Protocol: as §1
The controls were medium alone and CsA (1 mg in 1 ml ethanol).

Substance | toxicity (Alamar Blue dyeing) (PBMC cells; 100 μg/ml) | toxicity (Alamar Blue dyeing) (PBMC cells; all concentrations 1-100 μg/ml except AV 74S at 100 μg/ml) | inhibition relative to the controls (PHA-activated PBMCs [1]; 50 μg/ml) | inhibition relative to the controls (PHA-activated PBMCs [1]; 100 μg/ml) | inhibitory effect on PBMCs (summary of Examples 9 and 10) (PHA-activated PBMCs [1]) | inhibition relative to the controls (PHA-activated PBMCs [2])
(S) 2-N (3-O-(polypropyleneglycol)-1-propyl-4-hydroxybenzene)-3-phenylpropylamide [AV 74S] | same activity and toxicity pattern as Cyclosporine (CsA) | non-toxic effect | 81% | 100% | inhibitory effect | –
(S) 2-N (3-O-polypropyleneglycol)propylbenzene)-3-(4-hydroxyphenyl)propylamide [AV 61S] | – | – | about 49% | about 97% | inhibitory effect | 60%
